Results from ChEMBL document CHEMBL4311993, “Structure-activity relationship study of NPP1 inhibitors based on uracil-N1-(methoxy)ethyl-β-phosphate scaffold” (Eur J Med Chem, 2019).
Calls of active or inactive are those of the source. The calls are words filed in the database; no cut-off is given here.

Columns and labels:
[1] = molecular target: T1, Ectonucleotide pyrophosphatase/phosphodiesterase family member 1 (Homo sapiens) (UniProt P22413); test: Inhibition of human NPP1 expressed in COS7 cell membranes at 100 uM using pNP-TMP as substrate preincubated for 3 mins followed by substrate addition and measured after 15 mins
T1 sequence (whole entry): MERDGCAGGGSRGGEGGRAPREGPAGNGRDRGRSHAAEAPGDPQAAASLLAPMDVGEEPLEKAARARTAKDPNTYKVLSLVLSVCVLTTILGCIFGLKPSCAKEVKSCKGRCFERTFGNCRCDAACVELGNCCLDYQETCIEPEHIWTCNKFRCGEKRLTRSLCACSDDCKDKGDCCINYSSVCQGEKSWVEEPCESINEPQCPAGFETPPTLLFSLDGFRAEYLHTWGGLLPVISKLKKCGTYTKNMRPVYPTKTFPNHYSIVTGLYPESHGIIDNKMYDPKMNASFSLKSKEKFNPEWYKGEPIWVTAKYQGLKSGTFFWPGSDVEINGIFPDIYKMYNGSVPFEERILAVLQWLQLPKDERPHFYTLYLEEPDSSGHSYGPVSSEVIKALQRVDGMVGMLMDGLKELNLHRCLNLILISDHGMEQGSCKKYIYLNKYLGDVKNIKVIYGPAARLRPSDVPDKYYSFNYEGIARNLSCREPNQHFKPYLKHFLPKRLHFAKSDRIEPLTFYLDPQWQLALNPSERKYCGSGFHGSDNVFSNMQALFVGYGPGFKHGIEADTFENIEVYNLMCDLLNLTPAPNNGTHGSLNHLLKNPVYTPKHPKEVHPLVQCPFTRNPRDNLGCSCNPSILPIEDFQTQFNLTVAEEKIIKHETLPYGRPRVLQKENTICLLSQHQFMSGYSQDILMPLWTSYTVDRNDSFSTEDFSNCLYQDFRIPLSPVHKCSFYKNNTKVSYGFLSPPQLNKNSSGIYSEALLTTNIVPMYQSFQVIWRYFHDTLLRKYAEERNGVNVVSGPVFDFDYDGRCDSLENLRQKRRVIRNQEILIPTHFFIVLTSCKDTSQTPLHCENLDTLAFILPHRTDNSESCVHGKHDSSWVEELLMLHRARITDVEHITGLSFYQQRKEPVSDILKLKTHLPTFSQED

[2] = molecular target: T2, Ectonucleotide pyrophosphatase/phosphodiesterase family member 3 (Homo sapiens) (UniProt O14638); test: Inhibition of human NPP3 expressed in COS7 cell membranes at 100 uM using pNP-TMP as substrate preincubated for 3 mins followed by substrate addition and measured after 15 mins
T2 sequence (whole entry): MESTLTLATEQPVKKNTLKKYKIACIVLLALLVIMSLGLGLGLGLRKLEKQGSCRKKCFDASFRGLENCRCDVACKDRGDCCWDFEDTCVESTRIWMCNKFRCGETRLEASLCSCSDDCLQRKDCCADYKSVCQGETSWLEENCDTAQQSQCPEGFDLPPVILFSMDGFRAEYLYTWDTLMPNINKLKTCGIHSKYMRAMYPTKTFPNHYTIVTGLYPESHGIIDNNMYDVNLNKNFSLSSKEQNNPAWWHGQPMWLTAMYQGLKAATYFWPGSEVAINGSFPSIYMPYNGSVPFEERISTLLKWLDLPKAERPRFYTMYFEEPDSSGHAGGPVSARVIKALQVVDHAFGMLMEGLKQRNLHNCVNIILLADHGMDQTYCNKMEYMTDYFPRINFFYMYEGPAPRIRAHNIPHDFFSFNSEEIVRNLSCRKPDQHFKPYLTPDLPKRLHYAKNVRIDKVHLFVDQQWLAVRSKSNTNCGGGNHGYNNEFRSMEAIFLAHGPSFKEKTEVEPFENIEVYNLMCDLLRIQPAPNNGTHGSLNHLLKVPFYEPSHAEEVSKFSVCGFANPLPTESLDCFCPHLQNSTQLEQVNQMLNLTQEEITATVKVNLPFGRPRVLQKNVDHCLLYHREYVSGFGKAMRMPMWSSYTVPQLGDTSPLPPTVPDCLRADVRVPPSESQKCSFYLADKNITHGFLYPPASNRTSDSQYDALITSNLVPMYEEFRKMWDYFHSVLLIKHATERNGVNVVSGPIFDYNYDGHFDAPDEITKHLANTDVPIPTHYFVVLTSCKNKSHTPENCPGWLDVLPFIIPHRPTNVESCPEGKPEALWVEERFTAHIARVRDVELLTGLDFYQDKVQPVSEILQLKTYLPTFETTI

[3] = molecular target: P2Y purinoceptor 2 (Homo sapiens) (UniProt P41231); test: Antagonist activity at human P2Y2 receptor expressed in AD293 cells assessed as inhibition of UTP-induced inositol-1-phosphate accumulation at 100 uM; assay type: functional, cell-based
[4] = molecular target: P2Y purinoceptor 2 (Homo sapiens) (UniProt P41231); test: Agonist activity at human P2Y2 receptor expressed in AD293 cells assessed as induction of IP1 accumulation at 0.1 to 1 uM; assay type: functional, cell-based
[5] = molecular target: T1, Ectonucleotide pyrophosphatase/phosphodiesterase family member 1 (Homo sapiens); test: Inhibition of human NPP1 expressed in COS7 cell membranes at 100 uM using pNP-TMP as substrate preincubated for 3 mins followed by substrate addition and measured after 15 mins relative to control
[6] = molecular target: T2, Ectonucleotide pyrophosphatase/phosphodiesterase family member 3 (Homo sapiens); test: Inhibition of human NPP3 expressed in COS7 cell membranes at 100 uM using pNP-TMP as substrate preincubated for 3 mins followed by substrate addition and measured after 15 mins relative to control
[7] = molecular target: T3, Ectonucleotide pyrophosphatase/phosphodiesterase family member 1 (Homo sapiens, UniProt P22413); test: Inhibition of human NPP1 expressed in COS7 cell membranes using pNP-TMP as substrate preincubated for 3 mins followed by substrate addition and measured after 15 mins by Dixon plot analysis
T3 sequence (P22413 whole entry): T1 sequence (whole entry)

Homo sapiens = species on record: Homo sapiens; test: Inhibition of alkaline phosphatase in human primary chondrocyte at 100 uM using p-nitrophenyl phosphate as substrate after 30 mins by […] relative to control
[8] = Cytotoxicity against human primary chondrocytes at 100 uM after 24 hrs by XTT assay
[9] = molecular target: T1, Ectonucleotide pyrophosphatase/phosphodiesterase family member 1 (Homo sapiens); test: Inhibition of NPP-1 in human articular chondrocytes at 100 uM using p-Nph-5'-TMP as substrate after 3 hrs by […] relative to control; assay type: cell-based
[10] = molecular target: P2Y purinoceptor 2 (Homo sapiens) (UniProt P41231); test: Partial agonist activity at human P2Y2 receptor expressed in AD293 cells assessed as inositol-1-phosphate accumulation at 100 uM; assay type: functional, cell-based

Chain of P2Y purinoceptor 2 (Homo sapiens) (P41231 whole entry): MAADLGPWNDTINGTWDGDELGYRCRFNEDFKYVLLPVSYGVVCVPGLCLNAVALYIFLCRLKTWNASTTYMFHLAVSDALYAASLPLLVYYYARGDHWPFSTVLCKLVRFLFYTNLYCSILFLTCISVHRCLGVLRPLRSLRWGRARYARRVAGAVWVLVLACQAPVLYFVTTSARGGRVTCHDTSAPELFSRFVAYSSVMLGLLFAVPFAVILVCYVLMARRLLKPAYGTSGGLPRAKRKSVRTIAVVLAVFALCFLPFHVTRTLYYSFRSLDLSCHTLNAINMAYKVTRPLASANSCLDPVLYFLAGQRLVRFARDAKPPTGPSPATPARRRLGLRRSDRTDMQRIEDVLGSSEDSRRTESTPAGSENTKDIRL

Structure (SMILES)	inhibition [1]	inhibition [2]	inhibition [3]	Activity [4]	inhibition [5]	inhibition [6]	Ki [7]	inhibition (Homo sapiens)	Activity [8]	inhibition [9]	Activity [10]
O=c1ccn(COCCO[PH](=O)O)c(=O)[nH]1	inactive	inactive	inactive	inactive	–	–	–	–	–	–	–
O=c1ccn(COCCOP(=S)(S)OP(=O)(O)CP(=O)(O)O)c(=O)[nH]1 (stereo not drawn)	–	–	inactive	–	96%	24%	940 nM	< 10%	Non-Toxic	–	–
O=c1ccn(COCCOP(=S)(S)OP(=O)(O)C(Cl)(Cl)P(=O)(O)O)c(=O)[nH]1 (stereo not drawn)	–	–	inactive	–	96%	21%	730 nM	< 10%	Non-Toxic	96%	–
O=c1ccn(COCCOP(=O)(O)O)c(=O)[nH]1	inactive	inactive	inactive	–	–	–	–	–	–	–	–
O=c1ccn(COCCOP(=O)(O)CP(=O)(O)O)c(=O)[nH]1	–	Active	–	inactive	54%	–	–	–	–	–	Active
O=c1ccn(COCCOP(=O)(O)C(Cl)(Cl)P(=O)(O)O)c(=O)[nH]1	–	Active	inactive	inactive	51%	–	–	–	–	–	–
